Reference: PMC5418574, “Facile access to potent antiviral quinazoline heterocycles with fluorescence properties via merging metal-free domino reactions” (Nature Communications, 2017)
Values joined by “and” are separate entries in the source; they are usually repeats but may differ in a detail not shown here. Equal values may be shown once. Read-outs that look alike come from different tables or passages of the source.

Tests used:
HCMV AD169-GFP = test: HCMV GFP-based replication assay (automated GFP fluorometry); type: cell-based, human cytomegalovirus
Procedure: The measurement of antiviral activity was based on automated fluorometry using a green fluorescent protein (GFP)-expressing, recombinant HCMV (excitation 485 nm, emission 535 nm; see Supplementary Note 2, Supplementary Data 1 and Supplementary Fig. 4 for dose–response curves).
HCMV GFP‐based replication assay and cell proliferation assay. The replication of human cytomegalovirus (HCMV) was determined by an established HCMV GFP-based replication assay as carried out over a duration of approx. seven days (multi-round infection) using cultures of primary human foreskin fibroblasts (HFFs). HFFs were cultivated in 12-well plates for the infection with a GFP-expressing recombinant human cytomegalovirus (HCMV AD169-GFP) and a signal quantitation using automated GFP fluorometry as described before.2-4 All data represent mean values of determinations in quadruplicate (HCMV infections performed in duplicate, GFP measurements of total cell lysates performed in duplicate). Processing and evaluation of data was performed by the use of Excel (means and standard deviations, see Supplementary Figure 4 and Supplementary Data 1). […]

[1] = trypan blue exclusion cytotoxicity assay; type: cell-based; settings: human, primary HFFs (human foreskin fibroblasts), 0.2-100 μM for 3 days, n=6 (artesunic acid n=3)
Procedure: (§1) In addition, EC50 values were confirmed using non-GFP-expressing HCMV (strain AD169) by a classical plaque formation assay on HFFs (n=4), providing data consistent with the GFP-based data shown in Table 1, that is, compound 7h, 7.3±0.7 μM; compound 8, 0.3±0.0 μM; compound 9, 0.3±0.1 μM. Moreover, antiviral activity was clearly separated from putative cytotoxic effects because of the results obtained with a standard trypan blue exclusion assay. […] Consistent with these findings are results from a MTS-based cell proliferation assay, showing moderate or no antiproliferative effects on HFFs for all analysed compounds in concentrations up to 30 μM (see Supplementary Fig. 5 and Supplementary Methods). Thus, the new quinazolines and hybrid compounds can be regarded as selective, which is one of the most important aspects in drug design.
Cytotoxicity and Cell Proliferation Assays
Assays measuring distinct parameters of cytotoxicity and/or cell proliferation were performed as described earlier.7, 8 In brief, a trypan blue exclusion assay was performed with cultured cells seeded in 24-well plates and incubated with increasing concentrations of antiviral compounds (range of 0.2 μM to […]
before the percentage of viable cells was determined by microscopic counting (determination at least in triplicates). The cell proliferation assay (CellTiter 96 AQueous One Solution cell proliferation assay; Promega) was performed in a 96-well plate format after a 3-day treatment with compounds under standard conditions of measurement as described by the manufacturer. […]

[2] = test system: non-GFP-expressing HCMV (strain AD169); test: classical plaque formation assay on HFFs; type: cell-based, human cytomegalovirus; settings: Human betaherpesvirus 5, AD169, read-out: EC50, plaque formation assay
Procedure: as §1

primary HFFs = test: confocal laser-scanning microscopy of cellular uptake of fluorescent compounds; type: cell-based, human; settings: 1–10 μM, uninfected or HCMV-infected, 20 h incubation
Procedure: Figure 7 Microscopy-based visualization of cellular uptake of fluorescent quinazoline compounds. (a) Artesunic acid–quinazoline hybrids 8 and 9. (b–d) Compounds 7h, 7g and 9 were analysed for properties of fluorescence imaging using confocal laser-scanning microscopy. HFFs were cultivated in six-well plates on cover slips and were either directly incubated with compounds by addition to the culture media for 20 h (c) or were added after HCMV infection (b,d; compound addition at 50 h post infection, fixation and analysis of cells 20 h later; scale bar, 10 μm). The chosen concentrations were 10 μM for compounds 7h, 7g and 9, or 1 μM for compound 9 in panels 4, 9 (b), panels 5, 10 (c) and panels 6–10 (d), referring to the compounds' EC50 values of anti-HCMV activity (see Table 1). The depicted images are representative for three independent experiments. Lack of mycoplasm contamination was verified by routine 4,6-diamidino-2-phenylindole staining. General procedures of cell fixation, indirect immunofluorescence staining of proteins (d) and microscopic analysis have been described elsewhere.
When analysing primary HFFs, the fluorescent compounds 7g, 7h and 9 could nicely be depicted both in extracellular (transparent arrows) and intracellular localizations (filled arrows; Fig. 7b,c). […] A nonfluorescent artemisinin-derived control compound (Fig. 7c, panels 2 and 7; see also Supplementary Fig. 6), the DMSO panels (solvent controls) as well as the inspection of different excitation wavelengths of the confocal laser-scanning microscopy confirmed the specificity of signals and a lack of unwarranted cross-fluorescence. […] An indirect immunofluorescence counterstaining of viral and cellular proteins[36][37] led to the detection of nuclear markers, that is, the viral protein kinase pUL97 and cellular lamins type A/C (Fig. 7d, panels 4, 9, 14 or 5, 10, 15, respectively), in the context of extracellular and intracellular fluorescence signals of compounds 7h and 9 (Fig. 7d, panels 1–5 or 6–15, respectively). […]

[3] = Human betaherpesvirus 5, AD169, read-out: HCMV EC50

SMILES | EC50 (HCMV AD169-GFP; [3]) | CC50 at 3 days [1] | GFP signal, % of Inf./DMSO, MW (mean) (HCMV AD169-GFP; 0.01 µM) | GFP signal, % of Inf./DMSO, single determination (raw data) (HCMV AD169-GFP; 0.01 µM) | GFP signal, % of Inf./DMSO, MW (mean) (HCMV AD169-GFP; 0.04 µM) | GFP signal, % of Inf./DMSO, single determination (raw data) (HCMV AD169-GFP; 0.04 µM) | GFP signal, % of Inf./DMSO, MW (mean) (HCMV AD169-GFP; 0.12 µM) | GFP signal, % of Inf./DMSO, single determination (raw data) (HCMV AD169-GFP; 0.12 µM) | GFP signal, % of Inf./DMSO, MW (mean) (HCMV AD169-GFP; 0.37 µM) | GFP signal, % of Inf./DMSO, single determination (raw data) (HCMV AD169-GFP; 0.37 µM) | GFP signal, % of Inf./DMSO, MW (mean) (HCMV AD169-GFP; 1.1 µM) | GFP signal, % of Inf./DMSO, single determination (raw data) (HCMV AD169-GFP; 1.1 µM) | GFP signal, % of Inf./DMSO, MW (mean) (HCMV AD169-GFP; 3.3 µM) | GFP signal, % of Inf./DMSO, single determination (raw data) (HCMV AD169-GFP; 3.3 µM) | EC50 (HCMV AD169-GFP; Human betaherpesvirus 5, AD169, read-out: EC50 (sheet Curves)) | EC50 [2] | cellular uptake (intracellular fluorescence) (primary HFFs)
C[C@@H]1CC[C@H]2[C@@H](C)C(=O)O[C@@H]3O[C@@]4(C)CC[C@@H]1[C@]32OO4 [Artemisinin, reference compound] | > 10 µM | > 100 µM |  |  |  |  |  |  |  |  |  |  |  |  |  |  | 
C[C@H]1[C@H](OC(=O)CCC(=O)O)O[C@@H]2O[C@@]3(C)CC[C@H]4[C@H](C)CC[C@@H]1[C@@]24OO3 [Artesunic acid, reference compound] | 3.8 ± 0.4 µM | 82 ± 0.9 µM |  |  |  |  |  |  |  |  |  |  |  |  |  |  | 
Nc1nc(O)c2ncn(COC(CO)CO)c2n1 [Ganciclovir, reference compound] | 2.6 ± 0.5 µM | > 100 µM |  |  |  |  |  |  |  |  |  |  |  |  |  |  | 
CC1CCC2C(C)C(OC(=O)CCC(=O)OCCCNc3ncnc4c(C#N)c(-c5ccc(F)cc5)cc(-c5ccc(F)cc5)c34)OC3OC4(C)CCC1C32OO4 (stereo not drawn) [compound 8] | 0.6 ± 0.1 µM | > 100 µM | 88% | 102% and 75% and 74% | 90% | 89% and 86% and 90% and 94% | 88% | 93% and 86% and 79% | 73% | 80% and 78% and 68% and 66% | 11% | 10% and 11% and 12% | 7% | 7.61% and 6.36% and 6% and 7% | 0.64 µM | 0.3 µM | 
CC1CCC2C(C)C(OC(=O)CCC(=O)OCCCNc3ncnc4c(C#N)c(-c5ccc(C(F)(F)F)cc5)cc(-c5ccc(C(F)(F)F)cc5)c34)OC3OC4(C)CCC1C32OO4 (stereo not drawn) [compound 9] | 0.1 µM | > 100 µM | 84% | 73% and 98% and 95% and 70% | 81% | 84% and 89% and 73% and 77% | 49% | 51% and 47% and 53% and 46% | 1.06% | 0.952% and 0.865% and 1.31% and 1.1% | 0.87% | 0.763% and 0.908% and 0.901% |  |  |  | 0.3 ± 0.1 µM | efficient cellular uptake
